Marks after values point to notes of the source that are not given here.
What was measured:
[1] = Optimal expulsion pH range with minimum expulsion percent, single elements (Example 7)
Description: A water solution (110 ml) containing known amount of single cationic element or elements, typically 0.5-200 ppm, was prepared from Merch Titrisol® standard solution. After adjusting pH by using acid (e.g. HCl or HNO3) or base (e.g. NaOH) to desired initial value, sample A (10 ml) was taken followed by adding 100 mg of selected solid complexation agent. The mixture was stirred at room temperature for 24 h and sample B (10 ml) was taken. Samples A and B were filtrated separately trough 0.2 μm syringe filter and the concentration of the studied element or elements in both solution was determined by using atomic absorption spectrophotometer. The expulsion percent was determined from the concentration differences between the sample solutions A and B.
Using the above mentioned general procedure optimal expulsion pH ranges for each metal with complexation agent 1a was determined. For each element the expulsion percent was determined in 5-14 different pH value. The obtained results are shown in table below with minimum expulsion percent inside the optimal pH range.

[2] = Drilled well water softening and purification (Example 15)
Description: Drilled well sample 1 (DW 1) was nearby Tampere and sample 2 (DW 2) nearby Turku. Samples (100 ml each) were stirred with 1a (1.0 g) for 24 h. The initial and final metal concentrations in solutions of selected metals were determined by using ICP-AES analysis after filtration and results are shown in Table 9.

[3] = Purification of water draining through the dump site, TS 1 (Example 16)
Description: Drainage water sample was taken from dumping site containing polluted soil: ca. 200 mg/l of Ca^2+ and Mg^2+; 0.05-0.3 mg/l of Al^3+, Ba^2+, Mn^2+, Mo^6+, Ni^2+ and Zn^2+; ≦0.05 mg/l of As^3+ (or As^5+), Cd^2+ and Pb^2+; pH 3.53.
Test Sample 1 (TS 1, 100 ml), which initial metal cation concentrations were determined by using ICP-AES method, was treated with 1a (1.0 g) with stirring for 24 h. After filtration trough 0.2 μm syringe filter metal concentrations in solution were determined and removal per cents were calculated. Since TS 1 contained only small amounts of As, Cd and Pb, sample was spiked with known amounts of these metal cations. The spiked sample (100 ml) was treated with 1a (1 g) as original TS 1 sample.

[4] = Simultaneous collection of Al, Ga and V from TS 5 at pH 0.5 (Example 23); conditions: spiked TS 5, pH 0.5, 1a 10 g
Description: A test solution containing 1-15 mg/l of Al^3+, Fe^2/3+, Mg^2+, Mn^2+, Ni^2+ and Zn^2+; 0.1-0.9 mg/l of Ca^2+ and Na^+; and trace amount of other Cr^3+, Co^2+, Cu^2+, Eu^3+, La^3+, Nd^3+, Y^3+, UO2^2+ and Nb^5+ cations were prepared.
TS 5 (100 ml) was spiked with known amounts of Al^3+, Ga^3+ and V^4+ Merch Titrisol® standard solutions. After pH of the mixture was adjusted to 0.5 by HNO3 sample A was taken followed by adding 1a (10 g). The mixture was stirred at room temperature for 24 h and sample B was taken. Samples A and B were filtrated separately trough 0.2 μm syringe filter and the concentrations of the studied elements in both solution were determined by using ICP-AES method. The expulsion percent for each element were determined from the concentration differences between the sample A and B. The experimental results are given in Table 17.

SMILES: NCCCCCCCCCCC(O)(P(=O)(O)O)P(=O)(O)O [Compound 1a, 11-Amino-1-hydroxyundecane-1,1-diyldiphosphonic acid]
- Expulsion [%] ([1]; Ag^+, minimum within pH range 1.5-12): >84%
- Expulsion [%] ([1]; Al^3+, minimum within pH range 1-2): >96%
- Expulsion [%] ([1]; Au^3+, minimum within pH range 0-2): >39%
- Expulsion [%] ([1]; Ba^2+, minimum within pH range 3-12): >75%
- Expulsion [%] ([1]; Bi^3+, minimum within pH range 0.5-4): 100%
- Expulsion [%] ([1]; Ca^2+, minimum within pH range 4-12): >50%
- Expulsion [%] ([1]; Cd^2+, minimum within pH range 3-11): >36%
- Expulsion [%] ([1]; Co^2+, minimum within pH range 4-11): >77%
- Expulsion [%] ([1]; Cr^3+, minimum within pH range 2.5-12): >60%
- Expulsion [%] ([1]; Cr^6+, As^3/5+, Ta^5+, within pH range 0-12): <8%
- Expulsion [%] ([1]; Cu^2+, minimum within pH range 3-11): >87%
- Expulsion [%] ([1]; Cu^+, minimum within pH range 3-11): >79%
- Expulsion [%] ([1]; Eu^3+, minimum within pH range 2-8): 70%
- Expulsion [%] ([1]; Fe^2+, minimum within pH range 3-10): >79%
- Expulsion [%] ([1]; Fe^3+, minimum within pH range 1-11): >55%
- Expulsion [%] ([1]; Ga^3+, minimum within pH range 0.5-1): 100%
- Expulsion [%] ([1]; Ga^3+, minimum within pH range 6-11): >90%
- Expulsion [%] ([1]; Hg^2+, minimum within pH range 2-11): >90%
- Expulsion [%] ([1]; Hg^+, minimum within pH range 2-11): >80%
- Expulsion [%] ([1]; Ir^3+, minimum within pH range 0.0-0.5): >65%
- Expulsion [%] ([1]; La^3+, minimum within pH range 0-3.8): >40%
- Expulsion [%] ([1]; Li^+, Na^+, K^+, within pH range 0-12): <5%
- Expulsion [%] ([1]; Mg^2+, minimum within pH range 4-12): >74%
- Expulsion [%] ([1]; Mn^2+, minimum within pH range 4-10): >69%
- Expulsion [%] ([1]; Mo^6+, minimum within pH range 4-10): >55%
- Expulsion [%] ([1]; Nb^5+, minimum within pH range 0-12): >40%
- Expulsion [%] ([1]; Nd^3+, minimum within pH range 2-8): >75%
- Expulsion [%] ([1]; Ni^2+, minimum within pH range 4-11): >40%
- Expulsion [%] ([1]; Os^4+, minimum within pH range 5-7): >40%
- Expulsion [%] ([1]; Pb^2+, minimum within pH range 2-9): >79%
- Expulsion [%] ([1]; Pd^2+, minimum within pH range 7-12): >65%
- Expulsion [%] ([1]; Pt^2+, minimum within pH range 0-1): >60%
- Expulsion [%] ([1]; Rh^3+, minimum within pH range 2-10): >19%
- Expulsion [%] ([1]; Ru^3+, minimum within pH range 2-11): >55%
- Expulsion [%] ([1]; Sb^3+, minimum within pH range 0.5-11): >75%
- Expulsion [%] ([1]; Sc^3+, minimum within pH range 0-12): >80%
- Expulsion [%] ([1]; Si^4+, Se^4/6+, within pH range 0-12): <2%
- Expulsion [%] ([1]; Sn^2+, minimum within pH range 8-10): 100%
- Expulsion [%] ([1]; Sn^4+, minimum within pH range 7-11): >91%
- Expulsion [%] ([1]; Sr^2+, minimum within pH range 4-12): >80%
- Expulsion [%] ([1]; Ti^4+, minimum within pH range 10-12): >35%
- Expulsion [%] ([1]; V^4+, minimum within pH range 0-0.5): >30%
- Expulsion [%] ([1]; W^6+, minimum within pH range 0.5-3): >12%
- Expulsion [%] ([1]; Y^3+, minimum within pH range 1.5-4 >10): >60%
- Expulsion [%] ([1]; Zn^2+, minimum within pH range 4-11): >75%
- Expulsion [%] ([1]; Zr^4+, minimum within pH range 0-4.8-10): 60%
- Concentration after 1a ([2]; DW 1 (pH 7.04), Al^3+, initial <0.05 mg/l): <0.05 mg/L
- Concentration after 1a ([2]; DW 1 (pH 7.04), Ca^2+, initial 43.8 mg/l): 0.232 mg/L
- Concentration after 1a ([2]; DW 1 (pH 7.04), Cu^2+, initial <0.05 mg/l): <0.05 mg/L
- Concentration after 1a ([2]; DW 1 (pH 7.04), Mg^2+, initial 10.9 mg/l): <0.1^4) mg/l
- Concentration after 1a ([2]; DW 1 (pH 7.04), Mn^2+, initial 0.095 mg/l): <0.02^4) mg/l
- Concentration after 1a ([2]; DW 1 (pH 7.04), Na^+, initial 15.2 mg/l): 13.5 mg/L
- Concentration after 1a ([2]; DW 1 (pH 7.04), Sr^2+, initial 0.097 mg/l): <0.02^4) mg/l
- Concentration after 1a ([2]; DW 1 (pH 7.04), Zn^2+, initial 0.044 mg/l): 0.018 mg/L
- Expulsion [%] ([2]; DW 1, Ca^2+): 99%
- Expulsion [%] ([2]; DW 1, Mg^2+): ≥ 99^5) %
- Expulsion [%] ([2]; DW 1, Mn^2+): ≥ 79^5) %
- Expulsion [%] ([2]; DW 1, Na^+): 11%
- Expulsion [%] ([2]; DW 1, Sr^2+): ≥ 79^5) %
- Expulsion [%] ([2]; DW 1, Zn^2+): ≥ 59^5) %
- Concentration after 1a ([2]; DW 2 (pH 6.97), Al^3+, initial 0.107 mg/l): <0.05^4) mg/l
- Concentration after 1a ([2]; DW 2 (pH 6.97), Ca^2+, initial 22.2 mg/l): 0.479 mg/L
- Concentration after 1a ([2]; DW 2 (pH 6.97), Cu^2+, initial 0.271 mg/l): <0.05^4) mg/l
- Concentration after 1a ([2]; DW 2 (pH 6.97), Mg^2+, initial 13.60 mg/l): 0.102 mg/L
- Concentration after 1a ([2]; DW 2 (pH 6.97), Mn^2+, initial <0.02 mg/l): <0.02 mg/L
- Concentration after 1a ([2]; DW 2 (pH 6.97), Na^+, initial 19.0 mg/l): 17.3 mg/L
- Concentration after 1a ([2]; DW 2 (pH 6.97), Sr^2+, initial 0.113 mg/l): 0.029 mg/L
- Concentration after 1a ([2]; DW 2 (pH 6.97), Zn^2+, initial 0.284 mg/l): 0.026 mg/L
- Expulsion [%] ([2]; DW 2, Al^3+): ≥ 53^5) %
- Expulsion [%] ([2]; DW 2, Ca^2+): 98%
- Expulsion [%] ([2]; DW 2, Cu^2+): ≥ 82^5) %
- Expulsion [%] ([2]; DW 2, Mg^2+): 99%
- Expulsion [%] ([2]; DW 2, Na^+): 9%
- Expulsion [%] ([2]; DW 2, Sr^2+): 74%
- Expulsion [%] ([2]; DW 2, Zn^2+): 91%
- Expulsion [%] ([3]; Spiked TS 1, Al^3+): 67%
- Expulsion [%] ([3]; Spiked TS 1, As^3/5+): 0%
- Expulsion [%] ([3]; Spiked TS 1, Ba^2+): 26%
- Expulsion [%] ([3]; Spiked TS 1, Ca^2+): 48%
- Expulsion [%] ([3]; Spiked TS 1, Cd^2+): 96%
- Expulsion [%] ([3]; Spiked TS 1, Mg^2+): 78%
- Expulsion [%] ([3]; Spiked TS 1, Mn^2+): ≥ 51^2) %
- Expulsion [%] ([3]; Spiked TS 1, Ni^2+): 33%
- Expulsion [%] ([3]; Spiked TS 1, Pb^2+): 94%
- Expulsion [%] ([3]; Spiked TS 1, Zn^2+): 90%
- Expulsion [%] ([3]; TS 1, Al^3+): 76%
- Expulsion [%] ([3]; TS 1, Ba^2+): 32%
- Expulsion [%] ([3]; TS 1, Ca^2+): 51%
- Expulsion [%] ([3]; TS 1, Mg^2+): 81%
- Expulsion [%] ([3]; TS 1, Mn^2+): ≥ 57^2) %
- Expulsion [%] ([3]; TS 1, Ni^2+): 50%
- Expulsion [%] ([3]; TS 1, Zn^2+): 89%
- Expulsion [%] ([4]; Al^3+): 99.8^1) %
- Expulsion [%] ([4]; Cr^3+): 0%
- Expulsion [%] ([4]; Fe^2/3+): ≥ 97.0^4) %
- Expulsion [%] ([4]; Ga^3+): 93.2^2) %
- Expulsion [%] ([4]; Mg^2+): 0%
- Expulsion [%] ([4]; Mn^2+): 9%
- Expulsion [%] ([4]; Ni^2+): 0%
- Expulsion [%] ([4]; V^4+): 99.7^3) %
- Expulsion [%] ([4]; Zn^2+): 23%
